The compounds below were run against VEGFR-2 kinase (Homo sapiens (Human), UniProt P35968) (assay: Test of small molecule compounds for inhibiting the activity of VEGFR-2 kinase). Conditions: class symbols A-D.
Chain of VEGFR-2 kinase (P35968 20-1356): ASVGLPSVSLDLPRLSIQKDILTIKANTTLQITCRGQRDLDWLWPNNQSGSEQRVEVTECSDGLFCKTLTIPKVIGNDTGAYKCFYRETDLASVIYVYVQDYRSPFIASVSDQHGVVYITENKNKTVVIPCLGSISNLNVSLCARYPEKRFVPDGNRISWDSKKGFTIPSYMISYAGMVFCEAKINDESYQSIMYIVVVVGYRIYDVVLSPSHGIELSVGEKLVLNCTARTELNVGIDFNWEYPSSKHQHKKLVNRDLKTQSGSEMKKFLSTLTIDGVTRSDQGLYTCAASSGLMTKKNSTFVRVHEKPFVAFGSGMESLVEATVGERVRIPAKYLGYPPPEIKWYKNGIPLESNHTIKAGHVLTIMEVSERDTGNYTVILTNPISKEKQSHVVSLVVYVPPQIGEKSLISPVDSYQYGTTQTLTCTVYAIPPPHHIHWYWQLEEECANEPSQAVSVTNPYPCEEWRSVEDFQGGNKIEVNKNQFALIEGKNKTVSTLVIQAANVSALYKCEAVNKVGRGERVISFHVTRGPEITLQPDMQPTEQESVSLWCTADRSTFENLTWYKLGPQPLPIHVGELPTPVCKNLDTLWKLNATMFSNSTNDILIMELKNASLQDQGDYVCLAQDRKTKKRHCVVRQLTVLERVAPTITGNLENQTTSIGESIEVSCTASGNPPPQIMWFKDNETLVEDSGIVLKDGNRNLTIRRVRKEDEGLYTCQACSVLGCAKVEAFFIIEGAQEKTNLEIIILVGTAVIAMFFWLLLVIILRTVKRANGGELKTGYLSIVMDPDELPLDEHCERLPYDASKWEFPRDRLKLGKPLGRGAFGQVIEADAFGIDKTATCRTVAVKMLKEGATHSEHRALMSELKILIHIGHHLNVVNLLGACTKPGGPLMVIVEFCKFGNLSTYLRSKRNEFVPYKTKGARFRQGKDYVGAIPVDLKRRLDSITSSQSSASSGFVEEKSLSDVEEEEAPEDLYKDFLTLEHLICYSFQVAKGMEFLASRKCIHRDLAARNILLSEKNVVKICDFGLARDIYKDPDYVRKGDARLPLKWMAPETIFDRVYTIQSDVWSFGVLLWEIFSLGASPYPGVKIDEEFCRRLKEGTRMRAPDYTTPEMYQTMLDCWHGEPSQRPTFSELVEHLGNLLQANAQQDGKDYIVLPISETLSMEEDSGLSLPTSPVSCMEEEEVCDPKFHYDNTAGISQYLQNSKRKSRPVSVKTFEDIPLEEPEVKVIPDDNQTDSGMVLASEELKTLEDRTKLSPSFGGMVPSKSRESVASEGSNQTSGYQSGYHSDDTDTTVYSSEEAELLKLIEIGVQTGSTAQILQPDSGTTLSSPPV
Assay type: biochemical
Protocol: Test of Small Molecule Compounds for Inhibiting the Activity of VEGFR-2 Kinase
The test was carried out as follows:
2. 2.5 μl of the gradient-diluted compounds was taken with a transfer pipette to a 384-well plate,
3. Addition of enzyme: 5 μl of 2×VEGFR-2 kinase was taken with a transfer pipette to the corresponding reaction well of the 384-well plate, which was mixed and pre-reacted at room temperature for 30 min,
5. Negative control: 2.5 μl/well 4× substrate/ATP Mix and 7.5 μl 1× Kinase Assay Buffer were added to the wells of the 384-well plate,
Positive control: 2.5 μl/well 4× substrate/ATP Mix, 2.5 μl/well 1× Kinase Assay Buffer containing 4% DMSO, and 5 μl/well 2×VEGFR-2 solution were added to the 384-well plate. The final concentration of DMSO in the reaction system is […],
6. The mixture was mixed well and then centrifuged and reacted at room temperature in dark for 60 min,
9. The 384-well plate was placed into the Envision plate reader and the signal was detected using the appropriate program,
Work on CSCCOc1cc2ncnc(Oc3ccc(NC(=O)NC4CC4)c(Cl)c3)c2c2c1OCCO2 [Example 85, 1-(2-chloro-4-(((5-(2-methylthio)ethoxy)-2,3-dihydro-[1,4]dioxino[2,3-f]quinazolin-10-yl)oxy)phenyl)-3-cyclopropylurea] yielded an IC50 of 500 to 5000 nM. In the case of COc1cc(NC(=O)Nc2ccc(Nc3ncnc4cc(OC)c5c(c34)OCCO5)cc2Cl)ccn1 [Example 10, 1-(2-chloro-4-((5-methoxy-2,3-dihydro-[1,4]dioxino[2,3-f]quinazolin-10-yl)amino)phenyl)-3-(2-methoxypyridin-4-yl)urea], the IC50 is reported as under 50 nM. In the case of COCCOc1cc2ncnc(Oc3ccc(NC(=O)Nc4cc(C(F)(F)F)ccc4F)cc3F)c2c2c1OCCO2 [Example 58, 1-(3-fluoro-4-((5-(2-methoxyethoxy)-2,3-dihydro-[1,4]dioxino[2,3-f]quinazolin-10-yl)oxy)phenyl)-3-(2-fluoro-5-(trifluoromethyl)phenyl)urea], the IC50 is reported as under 50 nM. Compound O=C(Nc1ccc(Oc2ncnc3cc(OCCN4CCOCC4)c4c(c23)OCCO4)cc1)Nc1ccc(Cl)c(C(F)(F)F)c1 [Example 72, 1-(4-chloro-3-(trifluoromethyl)phenyl)-3-(4-((5-(2-morpholinoethoxy)-2,3-dihydro-[1,4]dioxino[2,3-f]quinazolin-10-yl)oxy)phenyl)urea] has an IC50 of 500 to 5000 nM. With COCCOc1cc2ncnc(Oc3ccc(NC(=O)Nc4ccc(Cl)c(C(F)(F)F)c4)cc3F)c2c2c1OCCO2 [Example 59, 1-(4-chloro-3-(trifluoromethyl)phenyl)-3-(3-fluoro-4-((5-(2-methoxyethoxy)-2,3-dihydro-[1,4]dioxino[2,3-f]quinazolin-10-yl)oxy)phenyl)urea] the IC50 was under 50 nM. O=C(Nc1ccc(Nc2ncnc3cc(OCCCN4CCCC4)c4c(c23)OCCO4)cc1Cl)NC1CC1 [Example 61, 1-(2-chloro-4-((5-(3-(pyrrolidin-1-yl)propoxy)-2,3-dihydro-[1,4]dioxino[2,3-f]quinazolin-10-yl)amino)phenyl)-3-cyclopropylurea] was tested, and the IC50 was under 50 nM. With COc1cc2ncnc(Nc3ccc(NC(=O)Nc4cc(C)no4)c(Cl)c3)c2c2c1OCCO2 [Example 8, 1-(2-chloro-4-((5-methoxy-2,3-dihydro-[1,4]dioxino[2,3-f]quinazolin-10-yl)amino)phenyl)-3-(3-methylisoxazol-5-yl)urea] the IC50 was 50 to 500 nM. Compound COc1cc2ncnc(Nc3ccc(NC(=O)Nc4ccc(Oc5ccccc5)cc4)c(Cl)c3)c2c2c1OCCO2 [Example 13, 1-(2-chloro-4-((5-methoxy-2,3-dihydro-[1,4]dioxino[2,3-f]quinazolin-10-yl)amino)phenyl)-3-(4-(phenoxy)phenyl)urea] has an IC50 of over 5000 nM. Work on COc1cccc(NC(=O)Nc2ccc(Nc3ncnc4cc(OC)c5c(c34)OCCO5)cc2Cl)c1 [Example 4, 1-(2-chloro-4-((5-methoxy-2,3-dihydro-[1,4]dioxino[2,3-f]quinazolin-10-yl)amino)phenyl)-3-(3-methoxyphenyl)urea] yielded an IC50 of under 50 nM. With COc1cc2ncnc(Nc3ccc(NC(=O)NC(C)C)c(Cl)c3)c2c2c1OCCO2 [Example 9, 1-(2-chloro-4-((5-methoxy-2,3-dihydro-[1,4]dioxino[2,3-f]quinazolin-10-yl)amino)phenyl)-3-isopropylurea] the IC50 was 50 to 500 nM. Work on COCCOc1cc2ncnc(Oc3ccc(NC(=O)Nc4ccc(Cl)c(C(F)(F)F)c4)cn3)c2c2c1OCCO2 [Example 60, 1-(4-chloro-3-(trifluoromethyl)phenyl)-3-(6-((5-(2-methoxyethoxy)-2,3-dihydro-[1,4]dioxino[2,3-f]quinazolin-10-yl)oxy)pyridin-3-yl)urea] yielded an IC50 of 50 to 500 nM. COCCCCCCOc1cc2ncnc(Oc3ccc(NC(=O)NC4CC4)c(Cl)c3)c2c2c1OCCO2 [Example 88] gave an IC50 of under 50 nM. In the case of COCCOc1cc2ncnc(Nc3ccc(NC(=O)Nc4ccccn4)c(Cl)c3)c2c2c1OCCO2 [Example 36, 1-(2-chloro-4-((5-(2-methoxyethoxy)-2,3-dihydro-[1,4]dioxino[2,3-f]quinazolin-10-yl)amino)phenyl)-3-(pyridin-2-yl)urea], the IC50 is reported as over 5000 nM. In the case of COc1cc(NC(=O)Nc2ccc(Oc3ncnc4cc(OC)c5c(c34)OCCO5)c(Cl)c2)ccn1 [Example 26, 1-(3-chloro-4-((5-methoxy-2,3-dihydro-[1,4]dioxino[2,3-f]quinazolin-10-yl)oxy)phenyl)-3-(2-methoxypyridin-4-yl)urea], the IC50 is reported as under 50 nM. COc1cc2ncnc(Nc3ccc(NC(=O)NC4CC4)c(Cl)c3)c2c2c1OCCO2 [Example 2, 1-(2-chloro-4-((5-methoxy-2,3-dihydro-[1,4]dioxino[2,3-f]quinazolin-10-yl)amino)phenyl)-3-cyclopropylurea] was tested, and the IC50 was under 50 nM. In the case of COc1cc2ncnc(Nc3ccc(NC(=O)Nc4ccccn4)c(Cl)c3)c2c2c1OCCO2 [Example 5, 1-(2-chloro-4-((5-methoxy-2,3-dihydro-[1,4]dioxino[2,3-f]quinazolin-10-yl)amino)phenyl)-3-(pyridin-2-yl)urea], the IC50 is reported as over 5000 nM. In the case of O=C(Nc1ccc(Oc2ncnc3cc(OCCCN4CCOCC4)c4c(c23)OCCO4)cc1)Nc1cc(Cl)ccc1F [Example 89, 1-(2-fluoro-5-chlorophenyl)-3-(4-((5-(3-morpholinopropoxy)-2,3-dihydro-[1,4]dioxino[2,3-f]quinazolin-10-yl)oxy)phenyl)urea], the IC50 is reported as under 50 nM. COc1cc2ncnc(Nc3ccc(NC(=O)Nc4ccc(C(F)(F)F)cc4F)c(Cl)c3)c2c2c1OCCO2 [Example 12, 1-(2-chloro-4-((5-methoxy-2,3-dihydro-[1,4]dioxino[2,3-f]quinazolin-10-yl)amino)phenyl)-3-(2-fluoro-4-(trifluoromethyl)phenyl)urea] gave an IC50 of under 50 nM. O=C(Nc1ccc(Nc2ncnc3cc(OCCCN4CCOCC4)c4c(c23)OCCO4)cc1Cl)NC1CC1 [Example 63] showed an IC50 of under 50 nM. COCCOc1cc2ncnc(Nc3ccc(NC(=O)Nc4ccc(C(F)(F)F)cc4F)c(Cl)c3)c2c2c1OCCO2 [Example 43, 1-(2-chloro-4-((5-(2-methoxyethoxy)-2,3-dihydro-[1,4]dioxino[2,3-f]quinazolin-10-yl)amino)phenyl)-3-(2-fluoro-4-(trifluoromethyl)phenyl)urea] gave an IC50 of under 50 nM. In the case of COc1cc2ncnc(Nc3ccc(NC(=O)Nc4ccccc4)c(Cl)c3)c2c2c1OCCO2 [Example 6, 1-(2-chloro-4-((5-methoxy-2,3-dihydro-[1,4]dioxino[2,3-f]quinazolin-10-yl)amino)phenyl)-3-phenylurea], the IC50 is reported as 50 to 500 nM. COc1cc2ncnc(Oc3ccc(NC(=O)Nc4ccc(F)cc4)c(Cl)c3)c2c2c1OCCO2 [Example 16, 1-(2-chloro-4-((5-methoxy-2,3-dihydro-[1,4]dioxino[2,3-f]quinazolin-10-yl)oxy)phenyl)-3-(4-fluorophenyl)urea] showed an IC50 of under 50 nM. With O=C(Nc1ccc(Oc2ncnc3cc(OCCCN4CCS(=O)(=O)CC4)c4c(c23)OCCO4)cc1)Nc1cc(C(F)(F)F)ccc1F [Example 81, 1-(4-((5-(3-(1,1-dioxidothiomorpholino)propoxy)-2,3-dihydro-[1,4]dioxino[2,3-f]quinazolin-10-yl)oxy)phenyl)-3-(2-fluoro-5-(trifluoromethyl)phenyl)urea] the IC50 was under 50 nM. CN1CCN(CCOc2cc3ncnc(Nc4ccc(NC(=O)NC5CC5)c(Cl)c4)c3c3c2OCCO3)CC1 [Example 83, 1-(2-chloro-4-((5-(2-(1-methylpiperazin-4-yl)ethoxy)-2,3-dihydro-[1,4]dioxino[2,3-f]quinazolin-10-yl)amino)phenyl)-3-cyclopropylurea] gave an IC50 of 50 to 500 nM. For COCCOc1cc2ncnc(Nc3ccc(NC(=O)Nc4ccc(Oc5ccccc5)cc4)c(Cl)c3)c2c2c1OCCO2 [Example 44, 1-(2-chloro-4-((5-(2-methoxyethoxy)-2,3-dihydro-[1,4]dioxino[2,3-f]quinazolin-10-yl)amino)phenyl)-3-(4-(phenoxy)phenyl)urea], the IC50 was over 5000 nM. CCOc1cc2ncnc(Oc3ccc(NC(=O)Nc4cc(C(F)(F)F)ccc4F)cc3)c2c2c1OCCO2 [Example 77, 1-(4-((5-ethoxy-2,3-dihydro-[1,4]dioxino[2,3-f]quinazolin-10-yl)oxy)phenyl)-3-(2-fluoro-5-(trifluoromethyl)phenyl)urea] was tested, and the IC50 was under 50 nM. In the case of COc1cc2nccc(Oc3ccc(NC(=O)Nc4ccc(Cl)c(C(F)(F)F)c4)cc3F)c2c2c1OCCO2 [Example 91, 1-(4-chloro-3-(trifluoromethyl)phenyl)-3-(3-fluoro-4-((5-methoxy-2,3-dihydro-[1,4]dioxino[2,3-f]quinoline-10-yl)oxy)phenyl)urea], the IC50 is reported as 50 to 500 nM. For COCCOc1cc2ncnc(Oc3ccc(NC(=O)NC4CCC4)c(Cl)c3)c2c2c1OCCO2 [Example 54, 1-(2-chloro-4-((5-(2-methoxyethoxy)-2,3-dihydro-[1,4]dioxino[2,3-f]quinazolin-10-yl)oxy)phenyl)-3-cyclobutylurea], the IC50 was under 50 nM. In the case of COCCOc1cc2nccc(Oc3ccc(NC(=O)Nc4ccc(Cl)c(C(F)(F)F)c4)cc3)c2c2c1OCCO2 [Example 93, 1-(4-chloro-3-(trifluoromethyl)phenyl)-3-(4-((5-(2-methoxyethoxy)-2,3-dihydro-[1,4]dioxino[2,3-f]quinoline-10-yl)oxy)phenyl)urea], the IC50 is reported as 50 to 500 nM. COc1cc2ncnc(Oc3ccc(NC(=O)Nc4ccc(F)cc4F)c(F)c3)c2c2c1OCCO2 [Example 21, 1-(2,4-difluorophenyl)-3-(2-fluoro-4-((5-methoxy-2,3-dihydro-[1,4]dioxino[2,3-f]quinazolin-10-yl)oxy)phenyl)urea] showed an IC50 of under 50 nM. Work on COc1cc2ncnc(Oc3ccc(NC(=O)NC(C)C)c(Cl)c3)c2c2c1OCCO2 [Example 15, 1-(2-chloro-4-((5-methoxy-2,3-dihydro-[1,4]dioxino[2,3-f]quinazolin-10-yl)oxy)phenyl)-3-isopropylurea] yielded an IC50 of under 50 nM.

Reference: patent US10980809B2, “Urea-substituted aromatic ring-linked dioxane-quinazoline and -linked dioxane-quinoline compounds, preparation method therefor and use thereof” (BEIJING SCITECH-MQ PHARMACEUTICALS LIMITED, priority 2017, dated 2021)
